Laboratory results published in patent US6117661A, “Mutant mono-oxygenase cytochrome P450cam” (BG plc, priority 1995, dated 2000).
Where two headings read alike, the source gives them in different places.

Experiments:
P450cam WT = biological target: T1, P450cam WT (Pseudomonas putida, UniProt P00183); experiment: Product distribution following oxidation of substrates (GC); type: biochemical, P. putida; conditions: for Products (%) WT: label = product
T1 construct: reconstituted with putidaredoxin and putidaredoxin reductase
Description: (§1) A buffered solution (50 mM Tris.HCI, pH 7.4), typically 3 ml in volume, containing 10 uM putidaredoxin, 2 uM putidaredoxin reductase, 1 uM cytochrome P-450cam mono-oxygenase (wild-type or mutant), 200 mM KCI, 50 ug/ml bovine liver catalase (Sigma), and 1 mM target organic compound such as cyclohexylbenzene (added as a 0.1 M stock in ethanol) was preincubated at 30° C. for 5 minutes. The enzymatic reaction was initiated by adding NADH to a total concentration of 2 mM. Further four aliquots of NADH (to increase the NADH concentration by 1 mM each time) were added in intervals of 10 minutes, and 30 minutes into the incubation one aliquot of substrate (to increase the concentration by 1 mM) was also added. The reaction was quenched after 60 minutes by adding 0.5 ml chloroform and vortexing the mixture. The phases were separated by centrifugation (4000 g) at 4° C. The chloroform layer was analyzed by gas chromatography.
(§2) For many substrate compounds such as cyclohexylbenzene for which not all the P-450cam-mediated oxidation products are commercially available, the chloroform extracts are evaporated to dryness under a stream of nitrogen. The residues were extracted with hexane and the oxidation products separated by high performance liquid chromatography, eluting with a hexane/isopropanol gradient. The purified products were then identified by mass spectroscopy and particularly nuclear magnetic resonance spectroscopy.
(§3) The NADH concentration can be monitored at 340 nm and, in all cases, more substrates and NADH are added during the incubation.

[1] = biological target: T2, P450cam active site mutant Y96V (also C334A) (Pseudomonas putida, UniProt P00183, C335A/Y97V); type: biochemical, P. putida; conditions: for Products (%) Y96V: label = product
T2 construct: reconstituted with putidaredoxin and putidaredoxin reductase
Description: as §1, §2, §3

[2] = biological target: T3, P450cam active site mutant Y96F (also C334A) (Pseudomonas putida, UniProt P00183, C335A/Y97F); type: biochemical, P. putida; conditions: for Products(%) Y96F: label = product
T3 construct: reconstituted with putidaredoxin and putidaredoxin reductase
Description: as §1, §2, §3

[3] = biological target: T4, P450cam active site mutant Y96A (also C334A) (Pseudomonas putida, UniProt P00183, C335A/Y97A); type: biochemical, P. putida; conditions: for Products(%) Y96A: label = product
T4 construct: reconstituted with putidaredoxin and putidaredoxin reductase
Description: as §1, §2, §3

[4] = biological target: T5, P450cam active site mutant Y96L (also C334A) (Pseudomonas putida, UniProt P00183, C335A/Y97L); type: biochemical, P. putida; conditions: for Products (%) Y96L: label = product
T5 construct: reconstituted with putidaredoxin and putidaredoxin reductase
Description: as §1, §2, §3

[5] = biological target: T6, P450cam active site mutant F87A-F96G-F193A (Pseudomonas putida, UniProt P00183, C335A/F194A/F88A/Y97G); type: biochemical, P. putida; conditions: for Products (%) F87A-F96G-F193A: label = product
T6 construct: reconstituted with putidaredoxin and putidaredoxin reductase
Description: as §1, §2, §3

P450cam Mutant Y96A = P450cam Mutant Y96A (Pseudomonas putida, UniProt P00183, C335A/Y97A); type: binding, P. putida
Wild type P450cam [6] = biological target: T7, Wild type P450cam (Pseudomonas putida, UniProt P00183); type: binding, P. putida
P-450cam mutant Y96A = biological target: T8, P-450cam mutant Y96A (Pseudomonas putida, UniProt P00183, Y97A); experiment: Substrate binding constant Kapp, method of Sligar
T8 construct: made in house; host or cells: E. coli JM109, vector pRH1091
From the text: (§4) Binding of potential substrates was investigated by spectroscopic methods. […] This haem spin-state shift is accompanied by an increase in the haem reduction potential which enables the physiological electron-transfer partner putidaredoxin to reduce P-450cam and initiate the catalytic hydroxylation cycle^26. The haem spin state shift is thus a qualitative indication of the likelihood of molecules shown in Tables 1 and 2 being oxidised by the wild-type and mutant P-450cam enzymes.
(§5) ^a Values are the average of two independent measurements using the
(§6) method of Sligar (S. G. Sligar, Biochemistry, 1976, 15, 5399-5406). The
(§7) value of Kapp is strongly dependent on the concentration of K^+
(§8) in the buffer. At [K^+ ] > 150 mM, Kapp for camphor is 0.6 μM
(§9) for both wildtype and Y96A. Data in this table were determined at [K^
(§10) ] = 70 mM in phosphate buffer, pH 7.4, in order to avoid # salting out o
(§11) substrates at higher ion concentrations.

Wild type P450cam [7] = biological target: T7, Wild type P450cam; experiment: Substrate binding constant Kapp, method of Sligar; parameters: made in house; host or cells: E. coli JM109, vector pRH1091
From the text: as §4, §5, §6, §7, §8, §9, §10, §11

[8] = Protein aggregation upon standing/storage; type: physicochemical
From the text: The C334A mutation has the obvious benefit of removing unwanted protein dimerisation, thus ensuring the presence of a single species in solution at all times. In addition, we noted a completely unexpected benefit of this mutation. […] Aggregation will also occur during turnover, especially at the higher P-450cam concentrations required in any economically viable industrial application in, for example, synthesis of organic molecules. […] Thus, the C334A mutation has beneficial effects in protein handling, storage, and increased catalyst lifetime.

[9] = Protein dimerisation by anion exchange FPLC and gel filtration; type: physicochemical; conditions: Resource Q FPLC and Superose 12 gel filtration; C334A even at high concentrations (0.1 mM range)
From the text: We concluded that wild-type P-450cam underwent dimerisation by intermolecular S--S disulphide bond formation between the surface cysteine 334 on two protein molecules.

[10] = -- = no shift, nd = not determined

Molecule: c1ccc2c(c1)ccc1ccccc12 [Phenanthrene]
- Total products WT (P450cam WT; substrate phenanthrene): 0.075 area/10^6
- Total products Y96V ([1]; substrate phenanthrene): 1.6 area/10^6
- Total products Y96F ([2]; substrate phenanthrene): 4.5 area/10^6
- Total products Y96A ([3]; substrate phenanthrene): 7.0 area/10^6
- Total products Y96L ([4]; substrate phenanthrene): 2.8 area/10^6
- Total products F87A-F96G-F193A ([5]; substrate phenanthrene): 0.065 area/10^6
- Mutant Y96A Vs DTT (P450cam Mutant Y96A): 20
- Mutant Y96A ΔSpin high/low (P450cam Mutant Y96A; [10]): 20

Molecule: c1ccc2c(c1)-c1cccc3cccc-2c13 [Fluoranthene]
- Wild type Vs DTT (Wild type P450cam [6]): 5
- Total products WT (P450cam WT; substrate fluoranthene): 0 area/10^6
- Total products Y96A ([3]; substrate fluoranthene): 2.7 area/10^6
- Total products F87A-F96G-F193A ([5]; substrate fluoranthene): 0.2 area/10^6
- Mutant Y96A Vs DTT (P450cam Mutant Y96A): 10
- Mutant Y96A ΔSpin high/low (P450cam Mutant Y96A): 20

Molecule: Oc1cccc2ccccc12 [1-ol]
- Products (%) WT (P450cam WT; substrate naphthalene): 100%
- Products (%) Y96V ([1]; substrate naphthalene): 100%
- Products(%) Y96F ([2]; substrate naphthalene): 100%
- Products(%) Y96A ([3]; substrate naphthalene): 100%
- Products (%) Y96L ([4]; substrate naphthalene): 100%
- Products (%) F87A-F96G-F193A ([5]; substrate naphthalene): 100%

Molecule: CC12CCC(CC1=O)C2(C)C (single isomer, unassigned) [camphor]
- haem spin-state conversion on substrate binding (Wild type P450cam [6]; Soret band 418 nm to 392 nm): fully converted the haem to the 5-co-ordinated, high-spin form
- Kd (P-450cam mutant Y96A): 600 nM
- Kd (Wild type P450cam [7]): 600 nM

Molecule: Oc1ccc2ccccc2c1 [2-ol]
- Products (%) WT (P450cam WT; substrate naphthalene): 0%
- Products (%) Y96V ([1]; substrate naphthalene): 0%
- Products(%) Y96F ([2]; substrate naphthalene): 0%
- Products(%) Y96A ([3]; substrate naphthalene): 0%
- Products (%) Y96L ([4]; substrate naphthalene): 0%
- Products (%) F87A-F96G-F193A ([5]; substrate naphthalene): 0%

Molecule: c1cc2ccc3cccc4ccc(c1)c2c34 [Pyrene]
- Total products WT (P450cam WT; substrate pyrene): 0 area/10^6
- Total products Y96V ([1]; substrate pyrene): 1.6 area/10^6
- Total products Y96F ([2]; substrate pyrene): 1.5 area/10^6
- Total products Y96A ([3]; substrate pyrene): 1.2 area/10^6
- Total products Y96L ([4]; substrate pyrene): 1.5 area/10^6
- Total products F87A-F96G-F193A ([5]; substrate pyrene): 0.02 area/10^6

Molecule: c1ccc2ccccc2c1 [Naphthalene]
- Total products WT (P450cam WT; substrate naphthalene): 0.016 area/10^5
- Total products Y96V ([1]; substrate naphthalene): 1.4 area/10^5
- Total products Y96F ([2]; substrate naphthalene): 2.4 area/10^5
- Total products Y96A ([3]; substrate naphthalene): 1.1 area/10^5
- Total products Y96L ([4]; substrate naphthalene): 0.7 area/10^5
- Total products F87A-F96G-F193A ([5]; substrate naphthalene): 0.1 area/10^5
- Mutant Y96A Vs DTT (P450cam Mutant Y96A): 20
- Mutant Y96A ΔSpin high/low (P450cam Mutant Y96A; [10]): 15

B1: C148A: P-450cam surface mutant, cysteine 148 substituted to alanine (protein, UniProt P00183 2-415, looked up, variant C148A)
Camphor 5-monooxygenase: TTETIQSNANLAPLPPHVPEHLVFDFDMYNPSNLSAGVQEAWAVLQESNVPDLVWTRCNGGHWIATRGQLIREAYEDYRHFSSECPFIPREAGEAYDFIPTSMDPPEQRQFRALANQVVGMPVVDKLENRIQELACSLIESLRPQGQANFTEDYAEPFPIRIFMLLAGLPEEDIPHLKYLTDQMTRPDGSMTFAEAKEALYDYLIPIIEQRRQKPGTDAISIVANGQVNGRPITSDEAKRMCGLLLVGGLDTVVNFLSFSMEFLAKSPEHRQELIERPERIPAACEELLRRFSLVADGRILTSDYEFHGVQLKKGDQILLPQMLSGLDERENACPMHVDFSRQKVSHTTFGHGSHLCLGQHLARREIIVTLKEWLTRIPDFSIAPGAQIQHKSGIVSGVQALPLVWDPATTKAV
- dimerisation and aggregation upon storage ([8]; storage at 4° C., and even in 50% glycerol solutions at -20° C.): dimerisation as well as aggregation
- presence of protein dimer [9]: dimer was detected

B2: C334A: P-450cam surface mutant, cysteine 334 substituted to alanine (protein, UniProt P00183 2-415, looked up, variant C334A)
Camphor 5-monooxygenase: TTETIQSNANLAPLPPHVPEHLVFDFDMYNPSNLSAGVQEAWAVLQESNVPDLVWTRCNGGHWIATRGQLIREAYEDYRHFSSECPFIPREAGEAYDFIPTSMDPPEQRQFRALANQVVGMPVVDKLENRIQELACSLIESLRPQGQCNFTEDYAEPFPIRIFMLLAGLPEEDIPHLKYLTDQMTRPDGSMTFAEAKEALYDYLIPIIEQRRQKPGTDAISIVANGQVNGRPITSDEAKRMCGLLLVGGLDTVVNFLSFSMEFLAKSPEHRQELIERPERIPAACEELLRRFSLVADGRILTSDYEFHGVQLKKGDQILLPQMLSGLDERENAAPMHVDFSRQKVSHTTFGHGSHLCLGQHLARREIIVTLKEWLTRIPDFSIAPGAQIQHKSGIVSGVQALPLVWDPATTKAV
- aggregation ([8]; mM concentrations at room temperature over a period of three days): did not show any evidence of aggregation
- presence of protein dimer [9]: no dimer was detected
